Measurements from patent US7592457B2 (Korea Research Institute of Chemical Technology, priority 2004, dated 2009).

Columns and labels:
[1] = biological target: T1, 5-HT2c (Homo sapiens, UniProt P28335); assay: Radioligand binding, 5-HT2c ([3H]Mesulergine); conditions: read-out: Binding affinity (Inhibition rate % at 10 μM) 5HT2c
T1 construct: purchased Euroscreen/BioSignal Packard Inc
T1 sequence (P28335 33-458): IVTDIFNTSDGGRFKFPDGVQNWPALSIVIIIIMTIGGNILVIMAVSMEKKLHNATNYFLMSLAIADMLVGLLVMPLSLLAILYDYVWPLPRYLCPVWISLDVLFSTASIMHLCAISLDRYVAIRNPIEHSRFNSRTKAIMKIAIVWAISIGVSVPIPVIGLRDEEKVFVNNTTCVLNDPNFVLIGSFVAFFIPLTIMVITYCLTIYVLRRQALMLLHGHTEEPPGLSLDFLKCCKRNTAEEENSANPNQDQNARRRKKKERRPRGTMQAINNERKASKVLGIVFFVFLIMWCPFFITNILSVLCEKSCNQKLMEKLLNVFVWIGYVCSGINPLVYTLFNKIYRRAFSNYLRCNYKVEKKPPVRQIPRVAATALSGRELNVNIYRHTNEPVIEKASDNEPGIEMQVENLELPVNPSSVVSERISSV
Procedure: (§1) Radioligand bindings were performed according to the test method provided by the supplier of receptor membrane (Euroscreen/BioSignal Packard Inc.).

[2] = biological target: D1 (Homo sapiens, UniProt P21728); assay: Radioligand binding for selectivity, D1; conditions: read-out: Binding affinity (Inhibition rate % at 10 μM) D1
[3] = biological target: T2, 5-HT2a (Homo sapiens, UniProt P28223); assay: Radioligand binding, 5-HT2a ([3H]Ketanserin); conditions: read-out: Binding affinity (Inhibition rate % at 10 μM) 5HT2a
T2 construct: purchased Euroscreen/BioSignal Packard Inc
Procedure: as §1

[4] = biological target: T3, 5-HT7 (Homo sapiens, UniProt P34969); assay: Radioligand binding, 5-HT7 ([3H]LSD); conditions: read-out: Binding affinity (Inhibition rate % at 10 μM) 5HT7
T3 construct: purchased Euroscreen/BioSignal Packard Inc
Procedure: as §1

[5] = biological target: T4, hD4.2 receptor (Homo sapiens, UniProt P21917, DEL265-296); assay: Radioligand binding, dopamine D4 ([3H]YM-09151-2); conditions: read-out: Binding affinity (Inhibition rate % at 10 μM) D4
T4 construct: purchased BioSignal Packard Inc., Montreal, Canada
T4 sequence (P21917 with tags, fused parts or gaps DEL265-296): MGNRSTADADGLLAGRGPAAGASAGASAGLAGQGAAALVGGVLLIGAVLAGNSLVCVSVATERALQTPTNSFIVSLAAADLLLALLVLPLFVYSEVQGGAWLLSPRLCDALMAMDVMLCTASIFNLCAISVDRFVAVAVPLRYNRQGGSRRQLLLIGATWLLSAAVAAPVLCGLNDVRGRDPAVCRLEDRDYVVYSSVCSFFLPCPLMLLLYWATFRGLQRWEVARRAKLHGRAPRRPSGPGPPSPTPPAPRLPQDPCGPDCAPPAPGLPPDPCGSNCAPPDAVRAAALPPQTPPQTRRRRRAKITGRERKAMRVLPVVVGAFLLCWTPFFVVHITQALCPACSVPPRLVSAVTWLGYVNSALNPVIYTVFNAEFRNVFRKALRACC
Procedure: (§2) The radioligands used were [^3H] spiperone (for hD2L and hD3 receptors, 1 nM) and [^3H] YM-09151-2 (for hD4.2 receptor, 0.06 nM). Radioligand bindings were performed by the protocols provided by the supplier of receptor membranes (BioSignal Packard Inc., Montreal, Canada). Briefly, the buffer used in D2 or D3 receptor binding assay was 50 mM Tris-HCl (pH 7.4), 10 mM MgCl2, 1 mM EDTA, or 50 mM Tris-HCl (pH 7.4), 5 mM MgCl2, 5 mM EDTA, 5 mM KCl, 1.5 mM CaCl2, 120 mM NaCl, respectively. In [^3H] YM-09151-2 receptor binding assays, the buffer containing 50 mM Tris-HCl (pH 7.4), 5 mM MgCl2, 5 mM EDTA, 5 mM KCl and 1.5 mM CaCl2 was used. Nonspecific binding was determined with haloperidol (10 μM) or clozapine (10 μM) for D2 and D3, and D4 receptors, respectively. Competition binding studies were carried out with 7-8 concentrations of the test compound run in duplicate tubes, and isotherms from three assays were calculated by computerized nonlinear regression analysis (GraphPad Prism Program, San Diego, […]) to yield median inhibitory concentration (IC50) values.

[6] = biological target: T5, hD3 receptor (Homo sapiens, UniProt P35462); assay: Radioligand binding, dopamine D3 ([3H]spiperone); conditions: read-out: Binding affinity (Inhibition rate % at 10 μM) D3
T5 construct: purchased BioSignal Packard Inc., Montreal, Canada
Procedure: as §2

[7] = biological target: T6, human serotonin 5-HT6 receptor (Homo sapiens, UniProt P50406); assay: [3H]LSD binding at cloned 5-HT6 receptors; conditions: for IC50: [3H]LSD 1.87 nM, cloned receptor membranes, 37° C., 60 min, read-out: IC50; for inhibition at 10 µM: read-out: Binding affinity (Inhibition rate % at 10 μM) 5HT6; for 5-HT6 affinity compared with known selective antagonists: in words
T6 construct: made in house; host or cells: Sf21 insect cells (pBacPAK8 baculovirus vector)

[8] = biological target: T7, hD2L receptor (Homo sapiens, UniProt P14416); assay: Radioligand binding, dopamine D2 ([3H]spiperone); conditions: read-out: Binding affinity (Inhibition rate % at 10 μM) D2
T7 construct: purchased BioSignal Packard Inc., Montreal, Canada
Procedure: as §2

[9] = biological target: T8, 5-HT1a (Homo sapiens, UniProt P08908); assay: Radioligand binding, 5-HT1a ([3H]8-OH-DPAT); conditions: read-out: Binding affinity (Inhibition rate % at 10 μM) 5HT1a
T8 construct: purchased Euroscreen/BioSignal Packard Inc
T8 sequence (P08908 1-422): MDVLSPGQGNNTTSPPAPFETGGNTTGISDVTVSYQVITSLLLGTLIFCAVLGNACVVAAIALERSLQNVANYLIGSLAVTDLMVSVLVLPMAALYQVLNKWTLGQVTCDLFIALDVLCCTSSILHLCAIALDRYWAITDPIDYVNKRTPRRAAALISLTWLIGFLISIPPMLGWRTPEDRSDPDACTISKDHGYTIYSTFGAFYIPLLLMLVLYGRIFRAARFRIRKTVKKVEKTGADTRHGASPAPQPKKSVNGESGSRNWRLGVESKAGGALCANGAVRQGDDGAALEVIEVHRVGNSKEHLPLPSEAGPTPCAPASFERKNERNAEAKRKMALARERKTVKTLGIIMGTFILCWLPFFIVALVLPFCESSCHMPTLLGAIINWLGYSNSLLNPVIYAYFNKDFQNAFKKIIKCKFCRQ
Procedure: as §1

T6 sequence (P50406 whole entry): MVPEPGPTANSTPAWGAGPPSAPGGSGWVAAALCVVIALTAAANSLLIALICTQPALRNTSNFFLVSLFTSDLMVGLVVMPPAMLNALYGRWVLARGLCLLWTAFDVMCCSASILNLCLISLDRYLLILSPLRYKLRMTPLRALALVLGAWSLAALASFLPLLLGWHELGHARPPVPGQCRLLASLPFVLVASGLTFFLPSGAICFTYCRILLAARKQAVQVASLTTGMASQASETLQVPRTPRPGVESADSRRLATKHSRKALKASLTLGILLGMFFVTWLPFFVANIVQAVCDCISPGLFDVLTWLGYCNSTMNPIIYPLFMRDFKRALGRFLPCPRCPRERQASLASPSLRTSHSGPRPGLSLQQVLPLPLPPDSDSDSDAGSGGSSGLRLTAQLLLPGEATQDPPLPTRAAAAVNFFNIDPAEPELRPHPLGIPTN
Sequence of D1 (P21728 whole entry): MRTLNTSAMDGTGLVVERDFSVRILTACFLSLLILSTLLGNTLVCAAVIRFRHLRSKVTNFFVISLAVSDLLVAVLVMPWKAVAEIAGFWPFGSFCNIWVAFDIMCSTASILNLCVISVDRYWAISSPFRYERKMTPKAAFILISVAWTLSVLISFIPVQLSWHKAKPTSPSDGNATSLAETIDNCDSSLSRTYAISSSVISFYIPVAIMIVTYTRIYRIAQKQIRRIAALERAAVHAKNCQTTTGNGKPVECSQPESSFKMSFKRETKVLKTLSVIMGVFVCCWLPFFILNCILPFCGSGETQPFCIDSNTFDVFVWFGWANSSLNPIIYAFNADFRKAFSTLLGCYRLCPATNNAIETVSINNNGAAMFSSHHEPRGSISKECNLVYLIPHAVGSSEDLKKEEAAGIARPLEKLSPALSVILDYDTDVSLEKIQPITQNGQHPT
T3 sequence (P34969 whole entry): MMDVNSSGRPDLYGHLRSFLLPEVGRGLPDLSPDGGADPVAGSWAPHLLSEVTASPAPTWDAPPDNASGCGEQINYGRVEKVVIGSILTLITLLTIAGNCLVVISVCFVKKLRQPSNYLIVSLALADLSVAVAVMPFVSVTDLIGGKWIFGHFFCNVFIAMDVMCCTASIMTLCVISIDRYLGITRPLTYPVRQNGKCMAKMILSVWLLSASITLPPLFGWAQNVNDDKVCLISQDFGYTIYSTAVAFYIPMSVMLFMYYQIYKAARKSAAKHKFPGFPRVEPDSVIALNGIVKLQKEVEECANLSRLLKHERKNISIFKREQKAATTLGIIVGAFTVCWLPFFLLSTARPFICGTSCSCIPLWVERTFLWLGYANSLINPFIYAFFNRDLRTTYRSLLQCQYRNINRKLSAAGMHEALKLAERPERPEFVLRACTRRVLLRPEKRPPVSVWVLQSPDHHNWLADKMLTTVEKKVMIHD
T2 sequence (P28223 whole entry): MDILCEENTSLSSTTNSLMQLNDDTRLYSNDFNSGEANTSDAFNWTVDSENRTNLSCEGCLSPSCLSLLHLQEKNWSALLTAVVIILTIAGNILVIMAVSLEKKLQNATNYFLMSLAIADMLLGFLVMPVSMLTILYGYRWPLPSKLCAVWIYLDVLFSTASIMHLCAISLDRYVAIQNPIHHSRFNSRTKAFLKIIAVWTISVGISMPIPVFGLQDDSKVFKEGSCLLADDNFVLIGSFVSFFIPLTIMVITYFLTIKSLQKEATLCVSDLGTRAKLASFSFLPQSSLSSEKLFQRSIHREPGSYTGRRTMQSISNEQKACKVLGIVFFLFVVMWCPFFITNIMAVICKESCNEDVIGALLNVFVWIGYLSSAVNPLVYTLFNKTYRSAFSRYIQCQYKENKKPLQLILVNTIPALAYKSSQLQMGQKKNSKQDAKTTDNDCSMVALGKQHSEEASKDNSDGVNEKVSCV
T5 sequence (P35462 whole entry): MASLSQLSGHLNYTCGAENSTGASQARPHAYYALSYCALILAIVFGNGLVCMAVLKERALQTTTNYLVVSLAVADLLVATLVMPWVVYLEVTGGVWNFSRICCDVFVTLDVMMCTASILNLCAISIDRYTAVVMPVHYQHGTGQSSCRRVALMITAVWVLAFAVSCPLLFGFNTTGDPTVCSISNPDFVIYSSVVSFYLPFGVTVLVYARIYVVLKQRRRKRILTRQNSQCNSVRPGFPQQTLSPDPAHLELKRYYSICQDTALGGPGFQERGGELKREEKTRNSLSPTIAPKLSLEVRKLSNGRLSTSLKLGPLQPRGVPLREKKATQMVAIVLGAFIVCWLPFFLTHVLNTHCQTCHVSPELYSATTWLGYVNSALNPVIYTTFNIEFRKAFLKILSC
T7 sequence (P14416 whole entry): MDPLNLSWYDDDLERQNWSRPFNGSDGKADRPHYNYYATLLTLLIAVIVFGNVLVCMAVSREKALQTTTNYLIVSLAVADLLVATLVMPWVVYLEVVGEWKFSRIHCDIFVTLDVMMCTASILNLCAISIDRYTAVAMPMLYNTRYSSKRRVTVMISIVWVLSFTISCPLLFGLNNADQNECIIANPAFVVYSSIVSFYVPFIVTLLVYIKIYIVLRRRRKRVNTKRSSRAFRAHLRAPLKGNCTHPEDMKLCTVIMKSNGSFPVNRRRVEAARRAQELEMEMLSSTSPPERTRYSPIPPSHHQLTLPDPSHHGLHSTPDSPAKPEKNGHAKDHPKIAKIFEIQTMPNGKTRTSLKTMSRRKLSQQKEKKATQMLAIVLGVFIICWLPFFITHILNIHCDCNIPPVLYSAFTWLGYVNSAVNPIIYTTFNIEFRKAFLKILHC

| SMILES | inhibition at 10 µM [1] [%] | inhibition at 10 µM [2] [%] | inhibition at 10 µM [3] [%] | inhibition at 10 µM [4] [%] | melting point | inhibition at 10 µM [5] [%] | inhibition at 10 µM [6] [%] | IC50 [7] [µM] | inhibition at 10 µM [7] [%] | inhibition at 10 µM [8] [%] | inhibition at 10 µM [9] [%] | 5-HT6 affinity compared with known selective antagonists [7] |
| --- | --- | --- | --- | --- | --- | --- | --- | --- | --- | --- | --- | --- |
| CC1(c2ccccc2)C(=O)Nc2cc(Cl)ccc2C1=O (stereo not drawn) [Example 3, 7-chloro-3-methyl-3-phenyl-1H-quinoline-2,4-dione] | 8.9 | 25.5 | 12 | 7 | 174 to 175 °C | 0 | 10.9 | 2.47 | 69 | 4.9 | 40.2 |  |
| CC1(c2ccccc2)C(=O)Nc2cc(Br)cc(Br)c2C1=O (stereo not drawn) [Example 4, 5,7-dibromo-3-methyl-3-phenyl-1H-quinoline-2,4-dione] | 29.8 | 23.7 | 13.6 | 13 | 202 to 203 °C | 0 | 15.8 | 0.32 | 70.9 | 3 | 11.7 |  |
| COc1cc(Cl)cc2c1C(=O)C(C)(c1ccccc1)C(=O)N2 (stereo not drawn) [Example 6, 7-chloro-5-methoxy-3-methyl-3-phenyl-1H-quinoline-2,4-dione] | 13.5 | 31.1 | 10.6 | 19.5 | 267 to 269 °C | 1.6 | 23 | 0.428 | 68.3 | 29.7 | 65.8 |  |
| CC1(c2ccccc2)C(=O)Nc2cc(Cl)c(Cl)cc2C1=O (stereo not drawn) [Example 9, 6,7-dichloro-3-methyl-3-phenyl-1H-quinoline-2,4-dione] | 30.4 | 26.2 | 16.6 | 10.8 | 213 to 214 °C | 0 | 10.8 | 1.06 | 71.2 | 8.2 | 45.2 |  |
| CN(C)c1cc(Cl)c2c(c1)NC(=O)C(C)(c1ccccc1)C2=O (stereo not drawn) [Example 11, 5-chloro-7-dimethylamino-3-methyl-3-phenyl-1H-quinoline-2,4-dione] | 20 | 40.5 | 30.4 | 35.2 | 224 to 226 °C | 0.4 | 20.5 | 1.16 | 70.7 | 19.3 | 49.5 |  |
| COc1ccc(C2(C)C(=O)Nc3cc(Cl)cc(Cl)c3C2=O)cc1 (stereo not drawn) [Example 12, 5,7-dichloro-3-(4-methoxy-phenyl)-3-methyl-1H-quinoline-2,4-dione] | 5.7 | 15.7 | 8.5 | 23.1 | 210 to 212 °C | 0 | 24 | 0.917 | 73.3 | 16.3 | 40.2 | almost same affinities as or better affinities than known selective antagonists |
| CC1(c2ccc(Br)cc2)C(=O)Nc2cc(Cl)cc(Cl)c2C1=O (stereo not drawn) [Example 18, 3-(4-bromo-phenyl)-5,7-dichloro-3-methyl-1H-quinoline-2,4-dione] | 10.7 | 37.7 | 16.9 | 7.8 | 237 to 238 °C | 0 | 12.5 | 0.494 | 73.8 | 16 | 8 |  |
| CC1(c2cccc(OCc3ccccc3)c2)C(=O)Nc2cc(Cl)cc(Cl)c2C1=O (stereo not drawn) [Example 19, 3-(3-benzyloxy-phenyl)-5,7-dichloro-3-methyl-1H-quinoline-2,4-dione] | 0 | 92.6 | 67.3 | 69.5 | 201 to 203 °C | 0 | 37.4 | 0.134 | 74.9 | 37.8 | 88.8 |  |
| CC1(c2cccc(O)c2)C(=O)Nc2cc(Cl)cc(Cl)c2C1=O (stereo not drawn) [Example 20, 3-(3-hydroxy-phenyl)-5,7-dichloro-3-methyl-1H-quinoline-2,4-dione] | 4.7 | 64.6 | 46.1 | 29.2 | 248 °C (dec.) | 0 | 13.2 | 0.049 | 91.7 | 10.9 | 0 | almost same affinities as or better affinities than known selective antagonists |
| COc1ccc(C2(C)C(=O)Nc3cc(Cl)cc(Cl)c3C2=O)cc1[N+](=O)[O-] (stereo not drawn) [Example 21, 5,7-dichloro-3-(4-methoxy-3-nitro-phenyl)-3-methyl-1H-quinoline-2,4-dione] | 10.8 | 40.2 | 16.3 | 0 | 255 to 256 °C | 0 | 16.4 | 1.23 | 73.7 | 10.5 | 15.9 |  |
| CC1(c2ccc(O)c([N+](=O)[O-])c2)C(=O)Nc2cc(Cl)cc(Cl)c2C1=O (stereo not drawn) [Example 22, 5,7-dichloro-3-(4-hydroxy-3-nitro-phenyl)-3-methyl-1H-quinoline-2,4-dione] | 2.5 | 35.7 | 50.9 | 36.3 | 239 to 240 °C | 0 | 34 | 1.01 | 72.5 | 11.2 | 68.7 |  |
